# Reference: US11806342B2, “Diiodohydroxyquinoline for the treatment of clostridium difficile infection” (Purdue Research Foundation, priority 2019, dated 2023)
# Legend:
# Type in all cases: cell-based, Clostridium difficile
# [1] = test system: C. difficile NR-49277; test: Spore inhibition assay; details: five days
# Experimental: (§1) The spore inhibition assay was performed as described in previous reports to investigate the effect of diiodohydroxyquinoline on C. difficile spore formation. Briefly, […], the bacterial suspension was split into microcentrifuge tubes and drugs were added (in triplicates) at concentrations equal to ½×MIC or 1×MIC. Tubes were then, incubated anaerobically for five days at 37° C. Thereafter, an aliquot from each tube was diluted and plated on BHIS agar plates supplemented with 0.1% taurocholic acid, to count the total bacterial counts (vegetative bacteria+spores). The remaining solution was centrifuged, and the pellet was suspended in PBS, stored overnight at 4° C., and subsequently shock-heated at 70° C. for 30 minutes to kill the vegetative cells. The resulting solution was serially diluted and plated to determine the heat-resistant spore counts. Spore inhibition assay was performed as described in previous reports to investigate the effect of DIHQ on C. difficile spore formation. Briefly, log-phase cultures of C. difficile strains (ATCC BAA-1870, ATCC 43255, and NR-49277) were diluted in BHIS to an initial density of ˜10^6 CFU/mL. Afterwards, the bacterial suspension was split in small tubes and the drugs were added (in triplicates) at concentrations equal to ½×MIC or 1×MIC. Tubes were then incubated anaerobically for 5 days at 37° C. After that, an aliquot from each tube was diluted and plated on BHIS agar plates supplemented with 0.1% taurocholic acid, to count the total bacterial count (vegetative bacteria+spores). The remaining solution was centrifuged, and the pellet was suspended in PBS and stored overnight at 4° C. then shock heated at 70° C. for 30 minutes to kill the vegetative cells. The resulting solution was serially diluted and plated to determine the heat-resistant spore counts.
# [2] = test system: C. difficile ATCC BAA-1870; test: Spore inhibition assay; details: five days
# Experimental: as §1
# [3] = test system: C. difficile ATCC 43255; test: Spore inhibition assay; details: five days
# Experimental: as §1
# [4] = test system: C. difficile NR-49288; test: MIC and MBC, broth microdilution; details: Clostridioides difficile, NR49288, C. difficile NR-49288; for MBC: read-out: MBC; for MIC: read-out: MIC
# Experimental: (§2) Antibacterial activity of Diiodohydroxyquinoline against a wide panel of Clostridium difficile strains. […] MIC50 and MIC90 are the minimum concentration of each agent that inhibited growth of 50% and 90% of the tested isolates, respectively. The minimum bactericidal concentration (MBC) of these drugs was tested by plating 5 μL from wells with no growth onto BHIS agar plates. The MBC was categorized as the lowest concentration that reduced bacterial growth by 99.9% MIC50 and MIC90 are the minimum concentration of each agent that inhibited the growth of 50% and 90% of the tested isolates, respectively. The minimum bactericidal concentration (MBC) of these drugs was tested by plating 5 μL from wells with no growth onto BHIS agar plates. The MBC was categorized as the lowest concentration that reduced bacterial growth by 99.9% [29-31].
# [5] = test system: C. difficile P15; test: MIC and MBC, broth microdilution; details: Clostridioides difficile, C. difficile P15; for MBC: read-out: MBC; for MIC: read-out: MIC
# Experimental: as §2
# [6] = test system: C. difficile I9; test: MIC and MBC, broth microdilution; details: Clostridioides difficile, C. difficile I9; for MBC: read-out: MBC; for MIC: read-out: MIC
# Experimental: as §2
# [7] = test system: C. difficile P30; test: MIC and MBC, broth microdilution; details: Clostridioides difficile, C. difficile P30; for MBC: read-out: MBC; for MIC: read-out: MIC
# Experimental: as §2
# [8] = test system: C. difficile I13; test: MIC and MBC, broth microdilution; details: Clostridioides difficile, C. difficile I13; for MBC: read-out: MBC; for MIC: read-out: MIC
# Experimental: as §2
# [9] = test system: C. difficile I10; test: MIC and MBC, broth microdilution; details: Clostridioides difficile, C. difficile I10; for MBC: read-out: MBC; for MIC: read-out: MIC
# Experimental: as §2
# [10] = test system: C. difficile ATCC 1801; test: MIC and MBC, broth microdilution; details: Clostridioides difficile, ATCC1801, C. difficile ATCC 1801; for MBC: read-out: MBC; for MIC: read-out: MIC
# Experimental: as §2
# [11] = test system: C. difficile P3; test: MIC and MBC, broth microdilution; details: Clostridioides difficile, C. difficile P3; for MBC: read-out: MBC; for MIC: read-out: MIC
# Experimental: as §2
# [12] = test system: C. difficile P5; test: MIC and MBC, broth microdilution; details: Clostridioides difficile, C. difficile P5; for MBC: read-out: MBC; for MIC: read-out: MIC
# Experimental: as §2
# [13] = test system: C. difficile I11; test: MIC and MBC, broth microdilution; details: Clostridioides difficile, C. difficile I11; for MBC: read-out: MBC; for MIC: read-out: MIC
# Experimental: as §2
# [14] = test system: C. difficile I6; test: MIC and MBC, broth microdilution; details: Clostridioides difficile, C. difficile I6; for MBC: read-out: MBC; for MIC: read-out: MIC
# Experimental: as §2
# [15] = test system: C. difficile NR-49278; test: MIC and MBC, broth microdilution; details: Clostridioides difficile, NR49278, C. difficile NR-49278; for MBC: read-out: MBC; for MIC: read-out: MIC
# Experimental: as §2
# [16] = test system: C. difficile HM-745; test: MIC and MBC, broth microdilution; details: Clostridioides difficile, HM745, C. difficile HM-745; for MBC: read-out: MBC; for MIC: read-out: MIC
# Experimental: as §2
# [17] = test system: C. difficile ATCC 43255; test: MIC and MBC, broth microdilution; details: Clostridioides difficile, ATCC43255, C. difficile ATCC 43255; for MBC: read-out: MBC; for MIC: read-out: MIC
# Experimental: as §2
# [18] = test system: C. difficile P6; test: MIC and MBC, broth microdilution; details: Clostridioides difficile, C. difficile P6; for MBC: read-out: MBC; for MIC: read-out: MIC
# Experimental: as §2
# [19] = test system: C. difficile P20; test: MIC and MBC, broth microdilution; details: Clostridioides difficile, C. difficile P20; for MBC: read-out: MBC; for MIC: read-out: MIC
# Experimental: as §2
# [20] = test system: C. difficile P19; test: MIC and MBC, broth microdilution; details: Clostridioides difficile, C. difficile P19; for MBC: read-out: MBC; for MIC: read-out: MIC
# Experimental: as §2
# [21] = test system: C. difficile NR-49285; test: MIC and MBC, broth microdilution; details: Clostridioides difficile, NR49285, C. difficile NR-49285; for MBC: read-out: MBC; for MIC: read-out: MIC
# Experimental: as §2
# [22] = C. difficile ATCC BAA-1870, 1×MIC
# [23] = C. difficile ATCC BAA-1870, ½×MIC
structure (smiles),measurement,setting,value
"Oc1c(I)cc(I)c2cccnc12 [DIHQ, 5,7-diiodoquinolin-8-ol]",reduction in spore count,"[1]; C. difficile NR-49277, 1×MIC",~0.62 log10
same,reduction in spore count,"[1]; C. difficile NR-49277, ½×MIC",~0.56 log10
same,reduction in spore count,[2]; [22],~1.24 log10
same,reduction in spore count,[2]; [23],~0.74 log10
same,reduction in spore count,"[3]; C. difficile ATCC 43255, 1×MIC",~0.99 log10
same,reduction in spore count,"[3]; C. difficile ATCC 43255, ½×MIC",~0.38 log10
same,MBC,[4],0.5 µg/mL
same,MIC,[4],0.25 µg/mL
same,MBC,[5],1 µg/mL
same,MIC,[5],1 µg/mL
same,MBC,[6],0.06 µg/mL
same,MIC,[6],0.06 µg/mL
same,MBC,[7],0.5 µg/mL
same,MIC,[7],0.5 µg/mL
same,MBC,[8],2 µg/mL
same,MIC,[8],2 µg/mL
same,MBC,[9],1 µg/mL
same,MIC,[9],1 µg/mL
same,MBC,[10],4 µg/mL
same,MIC,[10],2 µg/mL
same,MBC,[11],2 µg/mL
same,MIC,[11],2 µg/mL
same,MBC,[12],4 µg/mL
same,MIC,[12],2 µg/mL
same,MBC,[13],1 µg/mL
same,MIC,[13],1 µg/mL
same,MBC,[14],0.5 µg/mL
same,MIC,[14],0.5 µg/mL
same,MBC,[15],0.5 µg/mL
same,MIC,[15],0.25 µg/mL
same,MBC,[16],1 µg/mL
same,MIC,[16],1 µg/mL
same,MBC,[17],0.5 µg/mL
same,MIC,[17],0.5 µg/mL
same,MBC,[18],0.5 µg/mL
same,MIC,[18],0.5 µg/mL
same,MBC,[19],1 µg/mL
same,MIC,[19],1 µg/mL
same,MBC,[20],1 µg/mL
same,MIC,[20],0.5 µg/mL
same,MBC,[21],1 µg/mL
same,MIC,[21],1 µg/mL
"CCc1c(Cl)c(O)c(Cl)c(O)c1C(=O)O[C@H]1[C@H](O)[C@H](OC)[C@H](OC/C2=C\C=C\C[C@H](O)/C(C)=C/[C@H](CC)[C@@H](O[C@@H]3OC(C)(C)[C@@H](OC(=O)C(C)C)[C@H](O)[C@@H]3O)/C(C)=C/C(C)=C/C[C@@H]([C@@H](C)O)OC2=O)O[C@@H]1C [Fidaxomicin, fidaxomicin]",reduction in spore count,"[1]; C. difficile NR-49277, 1×MIC",~1.27 log10
same,reduction in spore count,"[1]; C. difficile NR-49277, ½×MIC",~0.8 log10
same,reduction in spore count,[2]; [22],~1.8 log10
same,reduction in spore count,[2]; [23],~1.02 log10
same,reduction in spore count,"[3]; C. difficile ATCC 43255, 1×MIC",~1.8 log10
same,reduction in spore count,"[3]; C. difficile ATCC 43255, ½×MIC",~0.75 log10
same,MBC,[4],0.015 µg/mL
same,MIC,[4],0.007 µg/mL
same,MBC,[5],0.06 µg/mL
same,MIC,[5],0.06 µg/mL
same,MBC,[6],0.03 µg/mL
same,MIC,[6],0.03 µg/mL
same,MBC,[7],0.007 µg/mL
same,MIC,[7],0.007 µg/mL
same,MBC,[8],0.03 µg/mL
same,MIC,[8],0.03 µg/mL
same,MBC,[9],0.03 µg/mL
same,MIC,[9],0.015 µg/mL
same,MBC,[10],0.125 µg/mL
same,MIC,[10],0.06 µg/mL
same,MBC,[11],0.03 µg/mL
same,MIC,[11],0.015 µg/mL
same,MBC,[12],0.03 µg/mL
same,MIC,[12],0.03 µg/mL
same,MBC,[13],0.015 µg/mL
same,MIC,[13],0.015 µg/mL
same,MBC,[14],0.06 µg/mL
same,MIC,[14],0.06 µg/mL
same,MBC,[15],0.015 µg/mL
same,MIC,[15],0.007 µg/mL
same,MBC,[16],0.125 µg/mL
same,MIC,[16],0.06 µg/mL
same,MBC,[17],0.015 µg/mL
same,MIC,[17],0.015 µg/mL
same,MBC,[18],0.003 µg/mL
same,MIC,[18],0.003 µg/mL
same,MBC,[19],0.015 µg/mL
same,MIC,[19],0.015 µg/mL
same,MBC,[20],0.06 µg/mL
same,MIC,[20],0.03 µg/mL
same,MBC,[21],0.03 µg/mL
same,MIC,[21],0.015 µg/mL
"Cc1ncc([N+](=O)[O-])n1CCO [Metronidazole, metronidazole]",reduction in spore count (in words),"[1]; C. difficile NR-49277, ½×MIC or 1×MIC",almost no reduction
same,reduction in spore count (in words),"[2]; C. difficile ATCC BAA-1870, ½×MIC or 1×MIC",almost no reduction
same,reduction in spore count (in words),"[3]; C. difficile ATCC 43255, ½×MIC or 1×MIC",almost no reduction
same,MBC,[4],0.25 µg/mL
same,MIC,[4],0.25 µg/mL
same,MBC,[5],0.25 µg/mL
same,MIC,[5],0.25 µg/mL
same,MBC,[6],0.06 µg/mL
same,MIC,[6],0.06 µg/mL
same,MBC,[7],0.5 µg/mL
same,MIC,[7],0.5 µg/mL
same,MBC,[8],0.5 µg/mL
same,MIC,[8],0.25 µg/mL
same,MBC,[9],0.25 µg/mL
same,MIC,[9],0.25 µg/mL
same,MBC,[10],0.25 µg/mL
same,MIC,[10],0.25 µg/mL
same,MBC,[11],0.25 µg/mL
same,MIC,[11],0.25 µg/mL
same,MBC,[12],0.25 µg/mL
same,MIC,[12],0.25 µg/mL
same,MBC,[13],0.25 µg/mL
same,MIC,[13],0.25 µg/mL
same,MBC,[14],0.25 µg/mL
same,MIC,[14],0.25 µg/mL
same,MBC,[15],0.5 µg/mL
same,MIC,[15],0.25 µg/mL
same,MBC,[16],0.5 µg/mL
same,MIC,[16],0.5 µg/mL
same,MBC,[17],0.25 µg/mL
same,MIC,[17],0.25 µg/mL
same,MBC,[18],0.25 µg/mL
same,MIC,[18],0.25 µg/mL
same,MBC,[19],0.25 µg/mL
same,MIC,[19],0.25 µg/mL
same,MBC,[20],0.25 µg/mL
same,MIC,[20],0.25 µg/mL
same,MBC,[21],0.5 µg/mL
same,MIC,[21],0.25 µg/mL
